Earlier results, collected in US20230301938A1 (priority 2022, published 2023).
Read-outs that look alike come from different tables or passages of the source.

Key:
[1] = test system: human umbilical vein VECs (HUVECs)
[2] = test system: endothelium of atherosclerotic plaque; conditions: apoE(-/-) mice, injection
[3] = test system: lipopolysaccharide-induced inflammatory reactions
sepsis = conditions: for concentration of IL-1α: controls 1187.0 ± 278.64
[4] = test system: lipopolysaccharide-activated macrophages
myocardial ischemia = conditions: 10 mg/kg intravenously then 10 mg/kg/h
[5] = test system: Nrf2 (+/+) primary peritoneal macrophages
[6] = test system: Nrf2 (-/-) primary peritoneal macrophages
[7] = test system: LPS-challenged macrophages; conditions: pre-incubated 6 h, 0 to 50 µM, then LPS 24 h
[8] = 50 and 100 mg/kg/day, vs MD group

trans-3,5-dimethoxy-4-hydroxystilbene [pterostilbene]
oxLDL-induced cell shrinkage, chromatin condensation, nuclear fragmentation, and cell apoptosis ([1]; HUVECs, oxLDL 200 µg/ml): protected against such injuries
expression of lectin-like oxLDL receptor-1 (LOX-1) ([1]; in vitro and in vivo): inhibited
number of TUNEL-positive cells in the endothelium of atherosclerotic plaque [2]: strongly decreased

CC1=CC(=O)C(C(C)C)=CC1=O [thymoquinone]
lipopolysaccharide-induced inflammatory reactions [3]: suppressed effectively
concentration of nitric oxide ([3]; marker of inflammation): reduced significantly
concentration of IL-1α (sepsis; 0.75 mg/kg dose): 310.8 ± 70.93 pg/mL
IL-10 levels (sepsis; 0.75 mg/kg, controls 5505.2 ± 333.96): 2885.0 ± 553.98 pg/mL
concentration of IL-1α (sepsis; 1 mg/kg group): 428.3 ± 71.32 pg/mL
levels of IL-2 (sepsis; P=0.0851): relatively lower levels
levels of TNF-α (sepsis; P=0.1817): relatively lower levels
reduction of mortality (sepsis; mice, sepsis): 80-90%
renal and hepatic biomarker profiles (sepsis; mice, sepsis): improved

O=C(O[C@@H]1Cc2c(O)cc(O)cc2O[C@@H]1c1cc(O)c(O)c(O)c1)c1cc(O)c(O)c(O)c1 [EGCG]
NO production ([4]; cotreated with LPS): Inhibition
activation of nuclear factor-kappaB ([4]; electrophoretic mobility shift assay): blocked
TNF-α-induced nuclear factor-κB (NF-κB) activity (macrophage foam cells): inhibition
TNF-α-induced downregulation of ABCA1 and decrease in cholesterol efflux to apoA1 (macrophage foam cells; pretreatment): attenuated
myeloperoxidase activity (myocardial ischemia): reduced
myocardial damage (myocardial ischemia): reduced
plasma IL-6 levels (myocardial ischemia): decreased
plasma creatine phosphokinase levels (myocardial ischemia): decreased
disease activity index (DAI) (ulcerative colitis (UC); [8]): decreased
spleen index (SI) (ulcerative colitis (UC); [8]): decreased
HIF-1α protein expression in the colon (ulcerative colitis (UC); mouse, in vivo): decreasing
STAT3 protein expression in the colon (ulcerative colitis (UC); mouse, in vivo): decreasing
plasma levels of IL-10 (ulcerative colitis (UC); mouse, in vivo): increasing
plasma levels of TGF-β1 (ulcerative colitis (UC); mouse, in vivo): increasing
release of IL-6 (ulcerative colitis (UC); plasma): reduce
release of IL-17 (ulcerative colitis (UC); plasma): reduce

C[S+]([O-])CCCCN=C=S (stereo not drawn) [sulforaphane, 1-isothiocyanato-4-(methylsulfinyl)-butane]
HO-1 expression ([5]; LPS-stimulated): significantly augmented
LPS-stimulated mRNA expression, protein expression and production of TNF-alpha, IL-1beta, COX-2 and iNOS ([5]; pretreatment): potently inhibited
anti-inflammatory effect [6]: attenuated
expression of NO and cytokines [7]: able to prevent
inducible nitric oxide synthase (iNOS) activity (LPS-induced ARDS; 50 mg/kg): significantly inhibited
nuclear factor-κB protein expression (LPS-induced ARDS; 50 mg/kg): significantly decreased
prostaglandin E2 (PGE2) production (LPS-induced ARDS; 50 mg/kg): significantly inhibited
serum levels of interleukin-6 (IL-6) (LPS-induced ARDS; 50 mg/kg, ELISA): significantly decreased
serum levels of tumor necrosis factor-α (TNF-α) (LPS-induced ARDS; 50 mg/kg, ELISA): significantly decreased
lactate dehydrogenase (LDH) activity (LPS-induced ARDS; 50 mg/kg, LPS 5 mg/kg): significantly decreased
wet-to-dry ratio of the lungs (LPS-induced ARDS; 50 mg/kg, LPS 5 mg/kg): significantly decreased
Nrf2/antioxidant response element (ARE) pathway (LPS-induced ARDS; pre-treatment): activated
cyclooxygenase-2 (COX-2) protein expression (LPS-induced ARDS; western blot): significantly inhibited
matrix metalloproteinase-9 (MMP-9) protein expression (LPS-induced ARDS; western blot): significantly inhibited
